Measurements: US12185720B2, “Chitooligosaccharides and methods for use in enhancing plant growth” (NOVOZYMES BIOAG A/S, priority 2011, dated 2025)

Test system: Tomato seeds of hybrid tomato var. Royal Mounty
Test: In vitro tomato seedling root growth bioassay (agar medium)
Type: in vivo
Conditions: day 7; control water
Experimental: Tomato seeds of hybrid tomato var. Royal Mounty were surface sterilized with 10% bleach solution for 10 minutes followed by 3 rinses with sterilized distilled water. Seeds were then dried in a laminar air flow hood for 3 hours. Seeds were then placed in petri-dishes on solidified agar medium containing various concentrations of different sources of the LCO illustrated in FIG. 1b (manufactured by Darmstadt, Germany and Grenoble, France) (also referred to in the examples as the “soybean LCO”) and the inventive CO illustrated in FIG. 2a (also referred to in the examples as the “pea CO” or “CO-V”). Seedling roots were measured by a hand ruler and root fresh weights were taken in a micro balance at day 7. Growth study was done in a growth chamber at 22° C.

## LCO-V(C18:1, MeFuc) [Soybean LCO, reference compound]
  root fresh weight, compared to control seedlings: significantly better than control seedlings
  root length, compared to control seedlings: significantly better than control seedlings
